Data set [1] concerns Hepatitis C virus. Put plainly: Antiviral activity against HCV genotype 1b subgenomic replicon. It counts as functional, Hepacivirus hominis. (In general: Replicon systems follow genome replication, usually without infectious particles.)
The test system of data set [2] is Hepatitis C virus. Kind of data set: Antiviral activity against HCV genotype 5a subgenomic replicon infected in human Huh7-Lunet cells assessed as inhibition of viral replication by luciferase reporter gene assay. The class given is functional, cell-based, Hepacivirus hominis. Particulars: Huh-7.
In data set [3] the test system is Hepatitis C virus. Kind of data set: Antiviral activity against HCV genotype 1b subgenomic replicon expressing NS5B RNA dependent RNA polymerase S282T mutant infected in human HuH7 Luc-neo cells assessed as inhibition of viral replication by luciferase reporter gene assay relative to wild type HCV genotype 1b. It counts as functional, Hepacivirus hominis.
The test system of data set [4] is Hepatitis C virus. Put plainly: Antiviral activity against HCV genotype 3a subgenomic replicon infected in human Huh7-Lunet cells assessed as inhibition of viral replication by luciferase reporter gene assay. Particulars: Huh-7. The class given is functional, cell-based, Hepacivirus hominis.
Data set [5] relates to Hepatitis C virus. Kind of data set: Antiviral activity against HCV genotype 2a subgenomic replicon. It counts as functional, Hepacivirus hominis.
The nature of data set [6]: Drug metabolism in human hepatocytes assessed as cytidine triphosphate metabolite formation at 10 uM after 1 to 24 hrs by LC-MS/MS method. It counts as ADME, cell-based, Hepatocyte.
Data set [7] is described as follows: Drug metabolism in human hepatocytes assessed as ((2R,3R,4R,5R)-5-(2,4-dioxo-3,4-dihydropyrimidin-1(2H)-yl)-4-fluoro-3-hydroxy-4-methyltetrahydrofuran-2-yl)methyl tetrahydrogen triphosphate formation at 10 uM after 1 to 24 hrs by LC-MS/MS method. The class given is ADME, cell-based, Hepatocyte.
In data set [8] the test system is Hepatitis C virus. Kind of data set: Antiviral activity against HCV genotype 4a subgenomic replicon infected in human Huh7-Lunet cells assessed as inhibition of viral replication by luciferase reporter gene assay. It counts as functional, cell-based, Hepacivirus hominis. Particulars: Huh-7.
Data set [9] has as its system Hepatitis C virus. Put plainly: Antiviral activity against HCV genotype 6a subgenomic replicon infected in human Huh7-Lunet cells assessed as inhibition of viral replication by luciferase reporter gene assay. Particulars: Huh-7. The class given is functional, cell-based, Hepacivirus hominis.
Data set [10] has as its system Hepatitis C virus. Kind of data set: Antiviral activity against HCV genotype 1a subgenomic replicon infected in human Huh7-Lunet cells assessed as inhibition of viral replication by luciferase reporter gene assay. Particulars: subtype 1a, Huh-7. The class given is functional, cell-based, Hepacivirus hominis.
The nature of data set [11]: Inhibition of HCV genotype 1b NS5B RNA dependent RNA polymerase. More on the design: species or system Hepatitis C virus subtype 1b.
Data set [12] in a line: Drug metabolism in human hepatocytes assessed as ((2R,3R,5R)-4,4-dichloro-5-(2,4-dioxo-3,4-dihydropyrimidin-1(2H)-yl)-3-hydroxytetrahydrofuran-2-yl)methyl tetrahydrogen triphosphate formation at 10 uM after 1 to 24 hrs by LC-MS/MS method. It counts as ADME, cell-based, Hepatocyte.
Data set [13] can be described thus: Stability in human liver S9 fraction assessed as half life at 2 uM by LC-MS/MS method. It counts as ADME, tissue-based.
In data set [14] the test system is Canis familiaris. Kind of data set: Drug metabolism in dog liver assessed as ((2R,3R,5R)-5-(4-amino-2-oxopyrimidin-1(2H)-yl)-4,4-dichloro-3-hydroxytetrahydrofuran-2-yl)methyl tetrahydrogen triphosphate formation at 50 mg/kg/day, po for 4 days. It counts as ADME, organism-based, Canis lupus familiaris. Particulars: in vivo, 96 h.
A short description of data set [15]: Cytotoxic activity against human HuH7 cells incubated for 6 days by CCK8 assay. The class given is cell-based, Huh-7. In general terms: Tetrazolium assays rely on reduction of a dye to a coloured formazan, in cell work by metabolically active cells.
A short description of data set [16]: Stability in human whole blood assessed as half life at 2 uM by LC-MS/MS method. The class given is ADME.
Data set [17] concerns Hepatitis C virus. Kind of data set: Antiviral activity against HCV genotype 1b subgenomic replicon infected in human HuH7 Luc-neo cells assessed as inhibition of viral replication by luciferase reporter gene assay. The class given is functional, cell-based, Hepacivirus hominis. Particulars: Huh-7.
Data set [18] in a line: Drug metabolism in human hepatocytes assessed as ((2R,3R,5R)-5-(4-amino-2-oxopyrimidin-1(2H)-yl)-4,4-dichloro-3-hydroxytetrahydrofuran-2-yl)methyl tetrahydrogen triphosphate formation at 10 uM after 1 to 24 hrs by LC-MS/MS method. The class given is ADME, cell-based, Hepatocyte.
The nature of data set [19]: Stability in human intestinal […] S9 fraction assessed as half life at 2 uM by LC-MS/MS method. It counts as ADME.
Data set [20] has as its system Canis familiaris. Put plainly: Drug metabolism in dog liver assessed as ((2R,3R,5R)-5-(4-amino-2-oxopyrimidin-1(2H)-yl)-4,4-dichloro-3-hydroxytetrahydrofuran-2-yl)methyl tetrahydrogen triphosphate formation at 50 mg/kg/day, po for 4 days measured at 4 hrs on day 4. The class given is ADME, organism-based, Canis lupus familiaris. Particulars: in vivo.
In data set [21] the test system is Canis familiaris. Put plainly: Drug metabolism in dog liver assessed as ((2R,3R,5R)-4,4-dichloro-5-(2,4-dioxo-3,4-dihydropyrimidin-1(2H)-yl)-3-hydroxytetrahydrofuran-2-yl)methyl tetrahydrogen triphosphate formation at 50 mg/kg/day, po for 4 days measured at 4 hrs on day 4. The class given is ADME, organism-based, Canis lupus familiaris. Particulars: in vivo.
Data set [22] can be described thus: (§1) Inhibition of HCV genotype 1b NS5B Cdelta21 RNA dependent RNA polymerase using cIRES, GTP, UTP and CTP incubated for 30 mins in presence of [3H]-ATP/ATP mixture by scintillation counting method. More on the design: species or system Hepatitis C virus subtype 1b.
In data set [23] the test system is Hepatitis C virus subtype 1b. The description is as §1.

By EC50 is commonly meant the concentration needed to bring the measured effect to its halfway point. As a reminder, the IC50 is the midpoint of a concentration-inhibition curve. The low end stands for greater potency, the high end for weaker potency. As usually defined, the half-life is the time in which the quantity being followed falls by half. Broadly, the CC50 is the concentration that lowers cell viability or growth by half. A high value points to lower toxicity to the cells. What is called Ki is a dissociation constant, usually derived from enzyme kinetics or from competition with a known ligand.

The structures appear in SMILES notation. Activity calls are given as the source filed them. The rule behind the calls is not given here.

Turning to `CC(C)OC(=O)[C@H](C)N[P@@](=O)(OC[C@H]1O[C@@H](n2ccc(=O)[nH]c2=O)[C@](C)(F)[C@@H]1O)Oc1ccccc1`, the EC50 was found to be 0.092 µM in the data set on Hepatitis C virus [1]; 0.12 µM in the data set with Hepatitis C virus [2]; 0.13 µM in the data set on Hepatitis C virus [4]; 0.05 µM with Hepatitis C virus [5]; 0.23 µM with Hepatitis C virus [8]; 0.18 µM in the data set with Hepatitis C virus [9]. In the data set on Hepatitis C virus [10], the EC50 is 0.17 µM. Moreover, the “Ratio EC50” value in the data set on Hepatitis C virus [3] stood at 7.8. Besides, the Drug metabolism entry in data set [6] and in data set [7] was “Metabolite_Detected” throughout.
In data set [11], `O=c1ccn([C@@H]2O[C@H](COP(=O)(O)OP(=O)(O)OP(=O)(O)O)[C@@H](O)C2(F)F)c(=O)[nH]1` showed an IC50 of more than 100 µM.
Take `CC(C)OC(=O)[C@H](C)N[P@@](=O)(OC[C@H]1O[C@@H](n2ccc(=O)[nH]c2=O)C(Cl)(Cl)[C@@H]1O)Oc1ccccc1`: the Drug metabolism result in data set [12] was “Metabolite_Detected”; in the data set on Canis familiaris [14], “Metabolite_Detected”; in data set [18], “Metabolite_Detected”; in the data set with Canis familiaris [20], 0.93 µM; with Canis familiaris [21], 3.5 µM. Further, the EC50 in the data set on Hepatitis C virus [2] turned out to be 0.053 µM; in the data set on Hepatitis C virus [4], 0.068 µM; in the data set on Hepatitis C virus [5] it was 0.018 µM; in the data set on Hepatitis C virus [8] it was 0.066 µM; in the data set on Hepatitis C virus [9] it was 0.069 µM; in the data set on Hepatitis C virus [17], 0.056 µM. Besides, the EC50 with Hepatitis C virus [10] is 0.07 µM. Besides, the “Ratio EC50” value in the data set on Hepatitis C virus [3] amounted to 4.1. Moreover, the figures for the half-life at 2 µM in [13], in [16] and in [19] were 43 min, 27 min and 1380 min, respectively. For the same compound, the CC50 at 144 h in [15] was more than 100 µM.
In the case of `O=c1ccn([C@@H]2O[C@H](CO)[C@@H](O)C2(Cl)Cl)c(=O)[nH]1`, the CC50 at 144 h in data set [15] is more than 100 µM. Besides, in the data set with Hepatitis C virus [17], the concentration for a half-maximal effect (EC50) was more than 50 µM.
As for `Nc1ccn([C@@H]2O[C@H](COP(=O)(O)OP(=O)(O)OP(=O)(O)O)[C@@H](O)C2(Cl)Cl)c(=O)n1`, in data set [22], the Ki turned out to be 0.2 µM.
As to `O=c1ccn([C@@H]2O[C@H](COP(=O)(O)OP(=O)(O)OP(=O)(O)O)[C@@H](O)C2(Cl)Cl)c(=O)[nH]1`, the inhibition result in data set [23] was “Active”.
For the compound `CC(C)OC(=O)[C@H](C)NP(=O)(OC[C@H]1O[C@@H](n2ccc(=O)[nH]c2=O)C(Cl)(Cl)[C@@H]1O)Oc1cccc(C2(C)CC2)c1` (single isomer, unassigned), the figures for the half-life at 2 µM in data set [13], in data set [16] and in data set [19] were 4 min, 12 min and 20 min, respectively. The compound also came in with a CC50 at 144 h in [15] of more than 100 µM. Also, in the data set with Hepatitis C virus [17], the EC50 was found to be 0.23 µM.
On to `CC(C)OC(=O)[C@H](C)NP(=O)(OC[C@H]1O[C@@H](n2ccc(=O)[nH]c2=O)C(F)(F)[C@@H]1O)Oc1ccccc1` (single isomer, unassigned), for which the half-maximal effective concentration (EC50) with Hepatitis C virus [1] is 0.97 µM.
Turning to `CC[C@H](C)OC(=O)[C@H](C)NP(=O)(OC[C@H]1O[C@@H](n2ccc(=O)[nH]c2=O)C(Cl)(Cl)[C@@H]1O)Oc1ccccc1` (single isomer, unassigned), the values for the half-life at 2 µM in [13], in data set [16] and in [19] were 7 min, 11 min and 140 min, respectively. In data set [15], this compound displayed a CC50 at 144 h of more than 100 µM. The EC50 in the data set with Hepatitis C virus [17] was 0.083 µM.
Regarding `C[C@H](NP(=O)(OC[C@H]1O[C@@H](n2ccc(=O)[nH]c2=O)C(Cl)(Cl)[C@@H]1O)Oc1ccccc1)C(=O)OC1CCCCC1` (single isomer, unassigned), the half-life at 2 µM in data set [13] amounted to 3 min; in data set [16], 20 min; in [19] it was 70 min. The CC50 at 144 h in data set [15] is more than 100 µM. Besides, the concentration for a half-maximal effect (EC50) in the data set with Hepatitis C virus [17] came out at 0.16 µM.
Regarding `CC(C)OC(=O)[C@H](C)NP(=O)(OC[C@H]1O[C@@H](n2ccc(=O)[nH]c2=O)C(Cl)(Cl)[C@@H]1O)Oc1ccc(C2(C)CC2)cc1` (single isomer, unassigned), the half-life at 2 µM in data set [13] was determined as 10 min; in data set [16] it was 8 min; in data set [19], 60 min. Besides, it took 62 µM to reach half-maximal cytotoxicity in data set [15] (CC50 at 144 h). Besides, in the data set on Hepatitis C virus [17], the concentration giving a half-maximal response (EC50) turned out to be 0.34 µM.
With `CC(C)OC(=O)[C@H](C)NP(=O)(OC[C@H]1O[C@@H](n2ccc(=O)[nH]c2=O)C(Cl)(Cl)[C@@H]1O)Oc1cccc(C2CCC2)c1` (single isomer, unassigned), the half-life at 2 µM worked out at 3 min in data set [13], 8 min in data set [16] and 20 min in data set [19]. In addition, the CC50 at 144 h in data set [15] was more than 100 µM. Also, in the data set on Hepatitis C virus [17], the EC50 was found to be 0.22 µM.
As to `CC[C@@H](C)OC(=O)[C@H](C)NP(=O)(OC[C@H]1O[C@@H](n2ccc(=O)[nH]c2=O)C(Cl)(Cl)[C@@H]1O)Oc1ccccc1` (single isomer, unassigned), the half-life at 2 µM stood at 8 min in data set [13], 11 min in [16] and 140 min in [19]. Further, the CC50 at 144 h in data set [15] is more than 100 µM. In addition, the EC50 in the data set with Hepatitis C virus [17] worked out at 0.11 µM.
Take `C[C@@]1(F)[C@H](O)[C@@H](COP(=O)(O)OP(=O)(O)OP(=O)(O)O)O[C@H]1n1ccc(=O)[nH]c1=O` [GS-461203]: in [11], the Ki was determined as 0.49 µM.

Values taken from ChEMBL document CHEMBL4052672, “Discovery of β-d-2'-deoxy-2'-dichlorouridine nucleotide prodrugs as potent inhibitors of hepatitis C virus replication” (Bioorg Med Chem Lett, 2017).
